Like-named read-outs stand apart in the source and are kept apart here.
Legend:
hyaluronidase = test: Hyaluronidase inhibition assay; assay type: biochemical; conditions: 100 µM; for increase in hyaluronidase inhibition over phytol: relative to phytol
Protocol: The assay was conducted following the Sigma protocol with minor adjustments. In a microplate, 25 µL of 5 U/mL of hyaluronidase prepared in 20 mM sodium phosphate buffer (pH 7.0) with 77 mM sodium chloride and 0.01% BSA, was pre-incubated with 50 µL of the sample in concentrations ranging from between 0.100 μM and 100 μM for 10 min at 37 °C. Subsequently, the assay was initiated by adding 25 µL hyaluronic acid (0.015 % in 300 mM sodium phosphate, pH 5.35) to the incubation mixture and incubated for an additional 30 min at 37 °C. Undigested hyaluronic acid was precipitated with 200 µL acid albumin solution composed of 0.1 % bovine serum albumin in 24 mM sodium acetate and 79 mM acetic acid (pH 3.75). After standing at room temperature for 10 min, the absorbance of the reaction mixture was measured at 600 nm. The absorbance in the absence of enzymes (blank) served as the reference value for maximum absorbance. Sodium aurothiomalate was used as a control inhibitor. Enzyme activity was verified by a control experiment conducted simultaneously, in which the enzyme was pre-incubated with buffer instead, followed by the assay procedures described above. The inhibitory activity of the test compound was determined as follows:%Inhibition = [1 − (Absblank − Abssample)/(Absblank − Abscontrol)] × 100(4) where Absblank is the absorbance of the reaction without enzyme, Abssample is the absorbance of the extract or standard compound sodium aurothiomalate, and Abscontrol is the absorbance of the enzyme without inhibitor. The IC50 value, which was the sample concentration that inhibited 50% of the enzyme activity, was determined by interpolation from the % hyaluronidase inhibition vs. concentration curve.

tyrosinase = molecular target: T1, tyrosinase (Agaricus bisporus, UniProt C7FF04); test: Tyrosinase inhibition assay; assay type: biochemical
T1 construct: purchased Sigma-Aldrich
T1 sequence (C7FF04 1-392 limits assumed): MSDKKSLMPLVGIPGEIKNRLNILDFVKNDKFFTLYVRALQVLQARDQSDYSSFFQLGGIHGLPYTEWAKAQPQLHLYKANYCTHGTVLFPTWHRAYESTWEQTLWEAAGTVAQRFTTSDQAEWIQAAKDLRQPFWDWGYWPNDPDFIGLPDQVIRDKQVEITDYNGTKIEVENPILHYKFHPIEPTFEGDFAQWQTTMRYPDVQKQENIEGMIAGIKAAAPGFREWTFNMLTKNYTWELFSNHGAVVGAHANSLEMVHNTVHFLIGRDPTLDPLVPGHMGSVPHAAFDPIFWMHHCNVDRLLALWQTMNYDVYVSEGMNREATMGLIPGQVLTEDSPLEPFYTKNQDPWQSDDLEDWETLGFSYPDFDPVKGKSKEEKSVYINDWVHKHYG
Protocol: The extracts were assayed by adapting the tyrosinase inhibition method described by Shimizu et al. and modified by Manosroi et al.. […] The experiments were carried out in triplicate. For each concentration, enzyme activity was calculated as a percentage of the velocities compared to that of the assay using buffer without any inhibitor.

elastase = test: Elastase inhibition assay; assay type: biochemical; conditions: 100 µM
Protocol: The extracts were assayed by the method described by Ndlovu et al. with some modifications. In brief, 25 μL of elastase enzyme solution (0.3 U/mL), 50 μL of ten serial concentrations of the extracts or fractions (0.100–100 μM dissolved in 100 mM HEPES buffer, pH 7.5 containing no more than 2.5 % DMSO), and 125 μL HEPES buffer were mixed in a 96-well plate and incubated at room temperature for 20 min. Then, 50 μL of N-methoxysuccinyl-Ala-Ala-Pro-Val-p-nitroanilide (1 mM) was added. The enzyme activity was measured at 405 nm in the moment of substrate addition and after 40 min of incubation at 25 °C. N-Methoxysuccinyl-Ala-Ala-Pro-chloromethyl ketone at 0.100–100 μM was used as a positive control. The experiments were carried out in triplicate. For each concentration, enzyme activity was calculated as a percentage of the velocities compared to that of the assay, using buffer without any inhibitor. The IC50 value, which was the sample concentration that inhibited 50% of the enzyme activity, was determined interpolation from the % elastase inhibition vs. concentration curve.

[1] = DPPH radical scavenging assay; conditions: 100 µM
Protocol: Antioxidant activity was assayed by the 1,1-diphenyl-2-picryl-hydrazyl (DPPH) radical scavenging assay. Serial dilutions of studied extracts or reference compound (Trolox) were carried out in 96-well microplates, with concentrations ranging between 0.100 μM and 100 μM in methanol. DPPH dissolved in methanol was added to the microwells, yielding a final concentration of 45 µg/mL, and the absorbance at 515 nm was measured after 30 min in the dark. In each assay, a control was prepared in which the same amount of solvent substituted the sample or standard. Percentage of antioxidant activity (% AA) was calculated as %AA = [(Abscontrol − Abssample)/Abscontrol] × 100 (1) where Abscontrol is the absorbance of the control and Abssample is the absorbance of the alga extract or standard. All assays were carried out in triplicate and the results expressed as IC50, i.e., as the concentration yielding 50% scavenging of DPPH, calculated by interpolation from the % AA vs. concentration curve.

[2] = ABTS radical scavenging assay; conditions: 100 µM
Protocol: The method of Re et al. was adopted to perform the ABTS radical scavenging assay. The stock solutions included a 7 mM ABTS solution (2,2′-azinobis-(3 ethylbenzothiazoline 6 sulfonic acid)) and a 2.4 mM potassium persulfate solution. The working solution was prepared by mixing the two stock solutions in equal quantities and allowing for them to react for 12–16 h at room temperature in the dark. The solution was then diluted by mixing 1 mL ABTS solution with the amount of methanol necessary to obtain an absorbance of 0.7 at 734 nm. Serial dilutions of studied extracts or reference compound (Trolox) were carried out in 96-well microplates, with concentrations ranging between 0.100 μM and 100 μM in methanol. ABTS solution was then added to the microwells, and after 8 min of incubation, the absorbance was recorded at […]. In each assay, a negative control was prepared in which the same amount of solvent substituted the sample. The percentage of antioxidant activity (% AA) was calculated as %AA = [(Abscontrol − Abssample)/Abscontrol] × 100 (2) where Abscontrol is the absorbance of ABTS radical + methanol; Abssample is the absorbance of ABTS radical + sample/standard.
All assays were carried out in triplicate and results expressed as IC50, i.e., as the concentration yielding 50% scavenging of ABTS, calculated by interpolation from the % AA vs. concentration curve.

collagenase = test: Collagenase inhibition assay; assay type: biochemical; conditions: 100 µM; for fold increase in collagenase inhibition over phytol: compared to phytol
Protocol: An adaptation of the method of Mandl et al. was used to determine anti-collagenase activity. The following was added to 2 mL test tubes: 25 μL of collagenase solution (0.8 U/mL); 25 μL TES buffer (50 mM) with 0.36 mM calcium chloride, pH 7.4; and 50 μL of test sample or the reference compound EDTA (with concentrations ranging between 0.100 and 100 μM). The tubes were incubated in a water bath at 37 °C for 20 min. Thereafter, 50 μL FALGPA (1 mM) solution was added to the tubes and further incubated for 60 min at 37 °C. To all tubes, 200 μL of a solution containing equal volumes of a 1.6 mg/mL tin chloride (II) solution in 200 mM citrate buffer, pH 5, and 50 mg/mL ninhydrin solution in DMSO were added. All tubes were placed in a water bath (100 °C) for 5 min and left to cool to room temperature before adding 200 μL of 50% isopropanol to each tube. Contents in the tubes were then transferred to respective wells in 96-well plates. Absorbance was detected at 550 nm. EDTA was used as a control inhibitor. Percentage of collagenase inhibition was calculated as % Collagenase inhibition = [(Abscontrol − Abssample)]/Abscontrol] × 100 (5) where Abscontrol is the absorbance of buffer + collagenase; Abseample is the absorbance of buffer + collagenase + sample/standard.
All assays were carried out in triplicate and results expressed as IC50, i.e., as the concentration yielding 50% of collagenase inhibition, calculated by interpolation from the % collagenase inhibition vs. concentration curve.

[3] = read-out: IC50 against tyrosinase

SMILES	hyaluronidase inhibition (hyaluronidase) [%]	increase in hyaluronidase inhibition over phytol (hyaluronidase)	IC50 (tyrosinase; [3]) [µM]	elastase inhibition (elastase)	Percentage of DPPH scavenging [1]	Percentage of ABTS scavenging [2]	increase in ABTS antioxidant activity compared to phytol (1) [2] [%]	IC50 (tyrosinase; IC50 against tyrosinase) [µM]	collagenase inhibition (collagenase) [%]	fold increase in collagenase inhibition over phytol (collagenase) [fold]
C/C(=C\COC(=O)c1ccccc1)CCC[C@@H](C)CCC[C@@H](C)CCCC(C)C (stereo in doubt) [Compound 1a, Phytyl benzoate]	37.32	15–20%	34.73 ± 0.1	43.28%	4.75%	–	–	–	–	–
C/C(=C\COC(=O)/C=C/c1ccccc1)CCC[C@@H](C)CCC[C@@H](C)CCCC(C)C (stereo in doubt) [Compound 1f, Phytyl cinnamoate]	–	–	95.68 ± 0.94	–	about 50%	about 50%	30	–	–	–
CC(=CCO)CCCC(C)CCCC(C)CCCC(C)C (stereo not shown) [Compound 1, 3,7,11,15-tetramethylhexadec-2-en-1-ol, reference compound]	–	–	–	6.4%	–	–	–	77.5 ± 0.8	31.89	–
COc1ccccc1C(=O)OC/C=C(\C)CCC[C@H](C)CCC[C@H](C)CCCC(C)C [Compound 1b, Phytyl 2-methoxybenzoate]	34.74	–	59.62 ± 0.51	low	–	–	–	–	–	–
COc1cccc(C(=O)OC/C=C(\C)CCC[C@H](C)CCC[C@H](C)CCCC(C)C)c1 [Compound 1c, Phytyl 3-methoxybenzoate]	40.1	28%	79 ± 0.87	low	–	–	–	–	–	1.42
COc1ccc(C(=O)OC/C=C(\C)CCC[C@H](C)CCC[C@H](C)CCCC(C)C)cc1 [Compound 1d, Phytyl 4-methoxybenzoate]	22.54	–	27.9	–	–	about 50%	30	–	49.67	1.56
C/C(=C\COC(=O)c1ccc(Cl)cc1)CCC[C@H](C)CCC[C@H](C)CCCC(C)C [Compound 1e, Phytyl 4-chlorobenzoate]	14.66	–	> 100	27.78%	11.12%	–	30	–	–	1.38
C/C(=C\COC(=O)C=Cc1ccc([N+](=O)[O-])cc1)CCC[C@H](C)CCC[C@H](C)CCCC(C)C [Compound 1g, Phytyl 4-nitrocinnamoate]	23.06	–	64.1 ± 0.67	–	37.46%	28.74%	–	–	41.02	1.28
C/C(=C\COC(=O)c1ccco1)CCC[C@H](C)CCC[C@H](C)CCCC(C)C [Compound 1h, Phytyl 2-furoate]	36.02	15–20%	> 100	28.3%	–	–	–	–	22.37	–
C/C(=C\COC(=O)c1cccs1)CCC[C@H](C)CCC[C@H](C)CCCC(C)C [Compound 1i, Phytyl 2-thiophenecarbonoate]	–	–	> 100	18.19%	–	40.58%	–	–	41.68	1.28
Cc1c(C)c2c(c(C)c1O)CCC(C)(C(=O)O)O2 (stereo not shown) [Trolox, 6-hydroxy-2,5,7,8-tetramethylchroman-2-carboxylic acid, reference compound]	–	–	–	–	97.54%	–	–	–	–	–

Source: PMC11510177, “New Phytol Derivatives with Increased Cosmeceutical Potential” (Molecules, 2024)
